Assay results as given in ChEMBL document CHEMBL1201862, “PubChem BioAssay data set” (2004).
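Values below derive from 48-hour exposures of cells grown in 96-well plates, with endpoints linearly interpolated between the two concentrations bracketing the appropriate inhibition level. GI50 = concentration required for 50% inhibition of growth.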 Active and inactive are the calls of the source. Rule as the data show it: active = GI50 up to about 1.1 µM and inactive = higher.

Assays:
Assay in all cases: DTP human tumour cell line panel, 48 h
HCT-116 = tested on: HCT-116
SNB-75 = tested on: SNB-75
LOX IMVI = tested on: LOX IMVI
MDA-N = tested on: MDA-N
HOP-92 = tested on: HOP-92
OVCAR-8 = tested on: OVCAR-8
HCC 2998 = tested on: HCC 2998
UACC-62 = tested on: UACC-62
T47D = tested on: T47D
BT-549 = tested on: BT-549
CAKI-1 = tested on: CAKI-1
HL-60 = tested on: HL-60
Hs-578T = tested on: Hs-578T
SNB-19 = tested on: SNB-19
UACC-257 = tested on: UACC-257
CCRF-CEM = tested on: CCRF-CEM
NCI-H522 = tested on: NCI-H522
HT-29 = tested on: HT-29
K562 = tested on: K562
A498 = tested on: A498

Measured: GI50

Cc1ccc(/C=c2\c(=O)[nH]c3nc4ccccc4c(=O)n23)cc1
inactive: HCT-116 28.5 µM | SNB-75 28.6 µM | LOX IMVI 29.1 µM | MDA-N 23.8 µM | HOP-92 55.2 µM | OVCAR-8 40.9 µM | HCC 2998 25.4 µM | UACC-62 33.5 µM | T47D 41.9 µM | BT-549 21.6 µM | CAKI-1 > 100 µM | HL-60 29.2 µM | Hs-578T 31 µM | SNB-19 34.9 µM | UACC-257 70 µM | CCRF-CEM 30.7 µM | NCI-H522 29 µM

Cc1cc2ccccc2n1CC(=O)NCC(C)C
inactive: HCT-116 > 100 µM | HT-29 > 100 µM | SNB-75 > 100 µM | LOX IMVI > 100 µM | MDA-N > 100 µM | HOP-92 > 100 µM | OVCAR-8 > 100 µM | HCC 2998 > 100 µM | UACC-62 > 100 µM | T47D > 100 µM | BT-549 > 100 µM | CAKI-1 > 100 µM | HL-60 > 100 µM | Hs-578T > 100 µM | SNB-19 > 100 µM | K562 > 100 µM | UACC-257 > 100 µM | CCRF-CEM > 100 µM | NCI-H522 > 100 µM

O=C1NNC2(C(=O)N1)c1ccccc1-c1ccccc12
inactive: HCT-116 > 10 µM | HT-29 > 10 µM | SNB-75 > 10 µM | LOX IMVI > 10 µM | MDA-N > 10 µM | HOP-92 > 10 µM | OVCAR-8 > 10 µM | HCC 2998 > 10 µM | UACC-62 > 10 µM | T47D 2.55 µM | BT-549 > 10 µM | CAKI-1 > 10 µM | HL-60 > 10 µM | Hs-578T > 10 µM | SNB-19 > 10 µM | K562 > 10 µM | UACC-257 > 10 µM | CCRF-CEM > 10 µM | NCI-H522 > 10 µM

Cc1ccc(-c2nc3cc(Cl)ccc3[nH]2)cc1
inactive: HCT-116 > 100 µM | HT-29 49 µM | SNB-75 > 100 µM | LOX IMVI > 100 µM | MDA-N 42.5 µM | HOP-92 > 100 µM | OVCAR-8 > 100 µM | HCC 2998 53.2 µM | UACC-62 > 100 µM | T47D > 100 µM | BT-549 > 100 µM | CAKI-1 > 100 µM | HL-60 27 µM | Hs-578T > 100 µM | SNB-19 > 100 µM | K562 45.5 µM | UACC-257 > 100 µM | CCRF-CEM > 100 µM | NCI-H522 91.2 µM

COC(=O)CCC(C)[C@H]1CCC2C3C(C[C@H](OC(C)=O)[C@@]21C)[C@@]1(C)CCC2(C[C@H]1C[C@H]3OC(C)=O)OOC1(CCC(C(C)(C)C)CC1)OO2 (stereo not given in full)
inactive: HCT-116 3.97 µM | HT-29 > 100 µM | SNB-75 37.9 µM | LOX IMVI 5.25 µM | A498 > 100 µM | HOP-92 6.59 µM | OVCAR-8 12.4 µM | HCC 2998 46.3 µM | T47D 5.71 µM | BT-549 33.3 µM | CAKI-1 12.8 µM | HL-60 9.4 µM | Hs-578T 5.43 µM | SNB-19 > 100 µM | K562 8.69 µM | UACC-257 31.8 µM | CCRF-CEM 5.5 µM | NCI-H522 21 µM

O=C1OC(C(O)CO)C(C(O)CO)OC1=O (stereo not given)
inactive: HT-29 > 10 µM | A498 > 10 µM | OVCAR-8 > 10 µM | HCC 2998 > 10 µM | UACC-62 > 10 µM | T47D > 10 µM | BT-549 > 10 µM | CAKI-1 > 10 µM | HL-60 > 10 µM | Hs-578T > 10 µM | SNB-19 > 10 µM | K562 > 10 µM | UACC-257 > 10 µM | CCRF-CEM > 10 µM

NC(=S)SC1=NC(=O)C2(NN1)c1ccccc1-c1ccccc12
inactive: HCT-116 > 10 µM | HT-29 > 10 µM | SNB-75 > 10 µM | LOX IMVI > 10 µM | MDA-N > 10 µM | HOP-92 > 10 µM | OVCAR-8 > 10 µM | HCC 2998 > 10 µM | UACC-62 > 10 µM | T47D 1.67 µM | BT-549 > 10 µM | CAKI-1 > 10 µM | HL-60 > 10 µM | Hs-578T > 10 µM | SNB-19 > 10 µM | UACC-257 > 10 µM | CCRF-CEM > 10 µM | NCI-H522 4.27 µM

COc1cc(N(CCC#N)CCC#N)ccc1C(=N/NC(=O)c1cc(Br)ccc1O)/N=N/c1ccccc1
inactive: HCT-116 21.5 µM | HT-29 24.9 µM | SNB-75 27.7 µM | LOX IMVI 25.8 µM | MDA-N 30.1 µM | HOP-92 24.3 µM | OVCAR-8 28.4 µM | HCC 2998 23.3 µM | UACC-62 20 µM | T47D 24 µM | BT-549 20.8 µM | CAKI-1 27 µM | HL-60 13.9 µM | Hs-578T 61.2 µM | SNB-19 32.1 µM | K562 19.4 µM | UACC-257 24.7 µM | CCRF-CEM 8.45 µM | NCI-H522 23.4 µM

C=C(C)CCC(=O)[C@](C)(O)[C@H]1[C@H](O)C[C@@]2(C)[C@@H]3CCc4c(cc(OC5OC(CO)C(O)C(O)C5O)c(O)c4C)C3(C)C(=O)C[C@]12C (stereo not given in full)
inactive: HCT-116 > 100 µM | HT-29 > 100 µM | SNB-75 > 100 µM | LOX IMVI > 100 µM | A498 > 100 µM | MDA-N > 100 µM | HOP-92 > 100 µM | OVCAR-8 > 100 µM | HCC 2998 > 100 µM | UACC-62 > 100 µM | T47D > 100 µM | BT-549 > 100 µM | CAKI-1 > 100 µM | SNB-19 > 100 µM | K562 > 100 µM | UACC-257 > 100 µM | CCRF-CEM > 100 µM | NCI-H522 > 100 µM

O=C(CSc1nc2ccc(I)cc2c(=O)n1Cc1ccccc1)Nc1ccc(Br)cc1
inactive: HCT-116 88.5 µM | HT-29 > 100 µM | SNB-75 13.8 µM | LOX IMVI > 100 µM | A498 22.5 µM | HOP-92 60.3 µM | OVCAR-8 13.4 µM | UACC-62 > 100 µM | T47D 97.9 µM | BT-549 37.1 µM | CAKI-1 1.35 µM | HL-60 > 100 µM | Hs-578T 17.8 µM | SNB-19 68.1 µM | K562 24.7 µM | CCRF-CEM > 100 µM | NCI-H522 46.7 µM

Fc1cccc(C2SCc3nc4cc5ccccc5cc4n32)c1 (stereo not given)
inactive: HCT-116 > 100 µM | HT-29 > 100 µM | SNB-75 93.1 µM | LOX IMVI > 100 µM | MDA-N > 100 µM | HOP-92 21 µM | OVCAR-8 > 100 µM | HCC 2998 > 100 µM | UACC-62 > 100 µM | T47D > 100 µM | BT-549 > 100 µM | CAKI-1 68.9 µM | Hs-578T > 100 µM | SNB-19 > 100 µM | K562 > 100 µM | UACC-257 > 100 µM | CCRF-CEM > 100 µM
